Several values for one entry are separate records, joined by “and”; a condition that tells them apart may be missing. Identical values can stand only once. Inconclusive results and toxic doses are left out. Cut-off read from the data, not from the text of the source: active = T/C of 150% or more; inactive = T/C below 125%.
System: L1210 leukemia ip in BDF1 mice, survival T/C
Assay: NCI In Vivo Anticancer Drug Screen. Data for tumor model L1210 Leukemia (intraperitoneal) in B6D2F1 (BDF1) mice
Settings: endpoint: mean survival time, higher = longer survival
Method in brief: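 Tumor cells were implanted, animals were treated, and survival was followed. The result divides the treated measurement by the vehicle-control measurement.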

[1] = dose: 50.0 mg/kg/injection, schedule: Q04DX003 (ip), vehicle: Klucel (hydroxypropylcellulose) (HPC)
[2] = dose: 100.0 mg/kg/injection, schedule: Q04DX003 (ip), vehicle: Klucel (hydroxypropylcellulose) (HPC)
[3] = dose: 200.0 mg/kg/injection, schedule: Q04DX003 (ip), vehicle: Klucel (hydroxypropylcellulose) (HPC)
[4] = dose: 50.0 mg/kg/injection, schedule: Q04DX003 (ip), vehicle: saline with Tween-80
[5] = dose: 100.0 mg/kg/injection, schedule: Q01DX009 (ip), vehicle: saline with Tween-80
[6] = dose: 100.0 mg/kg/injection, schedule: Q04DX003 (ip), vehicle: saline with Tween-80
[7] = dose: 200.0 mg/kg/injection, schedule: Q01DX009 (ip), vehicle: saline with Tween-80
[8] = dose: 100.0 mg/kg/injection, schedule: Q01DX001 (ip), vehicle: saline
[9] = dose: 200.0 mg/kg/injection, schedule: Q01DX001 (ip), vehicle: saline
[10] = dose: 400.0 mg/kg/injection, schedule: Q01DX001 (ip), vehicle: saline
[11] = dose: 50.0 mg/kg/injection, schedule: Q01DX001 (ip), vehicle: saline
[12] = dose: 25.0 mg/kg/injection, schedule: Q04DX003 (ip), vehicle: Klucel (hydroxypropylcellulose) (HPC)
[13] = dose: 100.0 mg/kg/injection, schedule: Q01DX009 (ip), vehicle: Klucel (hydroxypropylcellulose) (HPC)
[14] = dose: 200.0 mg/kg/injection, schedule: Q01DX009 (ip), vehicle: Klucel (hydroxypropylcellulose) (HPC)
[15] = dose: 400.0 mg/kg/injection, schedule: Q01DX009 (ip), vehicle: Klucel (hydroxypropylcellulose) (HPC)
[16] = dose: 400.0 mg/kg/injection, schedule: Q04DX003 (ip), vehicle: Klucel (hydroxypropylcellulose) (HPC)
[17] = dose: 100.0 mg/kg/injection, schedule: Q01DX001 (ip), vehicle: saline with Tween-80
[18] = dose: 200.0 mg/kg/injection, schedule: Q01DX001 (ip), vehicle: saline with Tween-80
[19] = dose: 400.0 mg/kg/injection, schedule: Q01DX001 (ip), vehicle: saline with Tween-80

Measured: T/C

O=C(O)Cc1ccc(Cl)cc1Cl
inactive: [1] 93 % of control | [2] 98 % of control | [3] 98 % of control

CC1=NN(c2cccc(Cl)c2)C(=O)C1
inactive: [4] 105 % of control | [5] 93 % of control | [6] 94 % of control | [7] 106 % of control | dose: 200.0 mg/kg/injection, schedule: Q04DX003 (ip), vehicle: saline with Tween-80 96 % of control and 92 % of control | dose: 400.0 mg/kg/injection, schedule: Q04DX003 (ip), vehicle: saline with Tween-80 94 % of control

CCCCCCCCCC(CCCCCCCCC)NCC(C)OC(=O)c1ccc([N+](=O)[O-])cc1 (stereo unspecified)
inactive: dose: 75.0 mg/kg/injection, schedule: Q01DX001 (ip), vehicle: acetone 95 % of control | dose: 150.0 mg/kg/injection, schedule: Q01DX001 (ip), vehicle: acetone 95 % of control | dose: 300.0 mg/kg/injection, schedule: Q01DX001 (ip), vehicle: acetone 94 % of control

CCOC(=O)NC(NC(=O)OCC)C(Cl)CC (stereo unspecified)
inactive: [8] 107 % of control | [9] 97 % of control | [10] 101 % of control

Ic1ccc(C2CC(c3ccccc3)=NN2c2ccccc2)cc1 (stereo unspecified)
inactive: [5] 96 % of control | [7] 92 % of control | dose: 400.0 mg/kg/injection, schedule: Q01DX009 (ip), vehicle: saline with Tween-80 91 % of control

CC1(C)OC2OC(COC(=O)c3ccccc3)C(=O)C2O1 (stereo unspecified)
inactive: [11] 101 % of control | [8] 106 % of control | [9] 101 % of control | [10] 98 % of control

O=C(C=P(c1ccccc1)(c1ccccc1)c1ccccc1)CCl
inactive: dose: 6.25 mg/kg/injection, schedule: Q01DX001 (ip), vehicle: Klucel (hydroxypropylcellulose) (HPC) 102 % of control | dose: 6.25 mg/kg/injection, schedule: Q01DX009 (ip), vehicle: Klucel (hydroxypropylcellulose) (HPC) 103 % of control | dose: 6.25 mg/kg/injection, schedule: Q04DX003 (ip), vehicle: Klucel (hydroxypropylcellulose) (HPC) 97 % of control | dose: 12.5 mg/kg/injection, schedule: Q01DX001 (ip), vehicle: Klucel (hydroxypropylcellulose) (HPC) 98 % of control | dose: 12.5 mg/kg/injection, schedule: Q01DX009 (ip), vehicle: Klucel (hydroxypropylcellulose) (HPC) 101 % of control | dose: 12.5 mg/kg/injection, schedule: Q04DX003 (ip), vehicle: Klucel (hydroxypropylcellulose) (HPC) 97 % of control | dose: 25.0 mg/kg/injection, schedule: Q01DX001 (ip), vehicle: Klucel (hydroxypropylcellulose) (HPC) 98 % of control | dose: 25.0 mg/kg/injection, schedule: Q01DX009 (ip), vehicle: Klucel (hydroxypropylcellulose) (HPC) 104 % of control | [12] 100 % of control

N=C(N)c1ccc(C(=O)Oc2ccc([N+](=O)[O-])cc2)cc1
inactive: dose: 25.0 mg/kg/injection, schedule: Q01DX009 (ip), vehicle: saline with Tween-80 103 % of control | dose: 25.0 mg/kg/injection, schedule: Q04DX003 (ip), vehicle: saline with Tween-80 94 % of control | dose: 50.0 mg/kg/injection, schedule: Q01DX009 (ip), vehicle: saline with Tween-80 97 % of control | [4] 97 % of control | [6] 98 % of control and 92 % of control

O=Nc1c(O)[nH]c(=O)[nH]c1=O
inactive: dose: 100.0 mg/kg/injection, schedule: Q01DX001 (ip), vehicle: Klucel (hydroxypropylcellulose) (HPC) 95 % of control | dose: 200.0 mg/kg/injection, schedule: Q01DX001 (ip), vehicle: Klucel (hydroxypropylcellulose) (HPC) 106 % of control

NNc1ncnc2c1ccn2C1OC(CO)C(O)C1O (stereo unspecified)
inactive: dose: 5.0 mg/kg/injection, schedule: Q01DX001 (ip), vehicle: saline 110 % of control | dose: 10.0 mg/kg/injection, schedule: Q01DX001 (ip), vehicle: saline 110 % of control | dose: 20.0 mg/kg/injection, schedule: Q01DX001 (ip), vehicle: saline 121 % of control | dose: 35.0 mg/kg/injection, schedule: Q01DX001 (ip), vehicle: saline 108 % of control | dose: 40.0 mg/kg/injection, schedule: Q01DX001 (ip), vehicle: saline 115 % of control | dose: 53.0 mg/kg/injection, schedule: Q01DX001 (ip), vehicle: saline 114 % of control | dose: 80.0 mg/kg/injection, schedule: Q01DX001 (ip), vehicle: saline 114 % of control | [8] 119 % of control

Cc1ccccc1N1C(=O)c2ccccc2C1=O
inactive: [13] 95 % of control | dose: 100.0 mg/kg/injection, schedule: Q04DX002 (ip), vehicle: Klucel (hydroxypropylcellulose) (HPC) 96 % of control | [14] 98 % of control | dose: 200.0 mg/kg/injection, schedule: Q04DX002 (ip), vehicle: Klucel (hydroxypropylcellulose) (HPC) 86 % of control | [15] 98 % of control | dose: 400.0 mg/kg/injection, schedule: Q04DX002 (ip), vehicle: Klucel (hydroxypropylcellulose) (HPC) 93 % of control

CCC(C)NNCCO (stereo unspecified)
inactive: [11] 97 % of control | [8] 103 % of control | [9] 100 % of control

O=C(O)c1cc(O)c(Br)c(O)c1
inactive: dose: 75.0 mg/kg/injection, schedule: Q01DX009 (ip), vehicle: other 93 % of control | dose: 100.0 mg/kg/injection, schedule: Q04DX003 (ip), vehicle: saline 106 % of control | dose: 150.0 mg/kg/injection, schedule: Q01DX009 (ip), vehicle: other 96 % of control | dose: 200.0 mg/kg/injection, schedule: Q04DX003 (ip), vehicle: saline 101 % of control | dose: 400.0 mg/kg/injection, schedule: Q04DX003 (ip), vehicle: saline 95 % of control

C[Si](C)(C)c1cc(F)c(F)c(F)c1F
inactive: [13] 100 % of control | [2] 97 % of control | [14] 102 % of control | [3] 102 % of control | [15] 98 % of control | [16] 103 % of control

O=CN(N=O)c1ccc(Br)cc1
inactive: dose: 75.0 mg/kg/injection, schedule: Q01DX001 (ip), vehicle: other 96 % of control | dose: 150.0 mg/kg/injection, schedule: Q01DX001 (ip), vehicle: other 101 % of control | dose: 300.0 mg/kg/injection, schedule: Q01DX001 (ip), vehicle: other 103 % of control

CC(=O)NC1C(C)OC2COC(C)(C)OC2C1C (stereo unspecified)
inactive: [17] 100 % of control | [18] 100 % of control | [19] 104 % of control

Cc1cccc(C)c1NC(=O)c1ccc(Cl)cc1Cl
inactive: [13] 101 % of control | [2] 98 % of control | [14] 104 % of control | [3] 101 % of control | [15] 101 % of control | [16] 95 % of control

c1ccc(C(C2=NCCN2)c2ccccc2)cc1
inactive: [12] 101 % of control | dose: 50.0 mg/kg/injection, schedule: Q01DX009 (ip), vehicle: Klucel (hydroxypropylcellulose) (HPC) 102 % of control | [1] 106 % of control | [13] 91 % of control | [2] 101 % of control and 103 % of control

CCOC(=S)c1ccc(NS(=O)(=O)c2ccc(C)cc2)cc1
inactive: [17] 100 % of control | [18] 107 % of control | [19] 102 % of control

From PubChem BioAssay AID248 (DTP/NCI, 2004)
